Data as given in patent US20100065444A1, “PACK CONTAINING SOFT CAPSULES” (priority 2007, published 2010).

Columns and labels:
Assay type in all cases: physicochemical
[1] = Stability of multivitamin soft capsules in container with channel former and absorbent embedded in the inside walls, 40° C./75% RH
Source text: (§1) Multivitamin soft capsules (active-compound composition and capsule shell as described below) are introduced individually into a thermoformed cavity film made from PVC 250 μm+40 g/m^2 of PVDC and heat-sealed with aluminium foil (20 μm) and into a resealable container in/on the inside wall(s) of which at least one channel former is embedded, at least over part of the area, together with at least one absorbent (type: M-3006-16 Activ-Vial) in the inside walls of which a molecular sieve having a capacity of 1.92 g is embedded.
(§2) The blisters and containers containing the multivitamin soft capsules are stored at 40° C. and 75% relative humidity (RH), removed from storage after predetermined times, assessed visually with respect to their appearance and investigated analytically with respect to the amounts of active compound present. The results are compiled in Tables 1 and 2.

[2] = Stability of multivitamin soft capsules in PVC/PVDC-aluminium blister, 40° C./75% RH
Source text: as §1, §2

[3] = Stability of multivitamin soft capsules in container with channel former and absorbent embedded in the inside walls, 30° C./65% RH
Protocol: as §1, with “introduced” for “introduced individually into a thermoformed cavity film made from PVC 250 μm+40 g/m^2 of PVDC and heat-sealed with aluminium foil (20 μm) and”
The multivitamin soft capsules are stored at 30° C. and 65% relative humidity (RH), removed from storage after predetermined times, assessed visually with respect to their appearance and investigated analytically with respect to the amounts of active compound present.

[4] = Multivitamin soft capsule batch 9018802, 6 months
[5] = Multivitamin soft capsule batch 9018802, Start
[6] = Multivitamin soft capsule batch 9018401, 3 months
[7] = Multivitamin soft capsule batch 9018401, Start
[8] = Multivitamin soft capsule batch GD 06 0045, 6 months
[9] = Multivitamin soft capsule batch GD 06 0045, Start

Row | Molecule | amount of active compound present [1, 4] [mg/capsule] | amount of active compound present, % of start [1, 4] [%] | amount of active compound present [1, 5] [mg/capsule] | amount of active compound present, % of start [1, 5] [%] | amount of active compound present [2, 6] [mg/capsule] | amount of active compound present, % of start [2, 6] [%] | amount of active compound present [2, 7] [mg/capsule] | amount of active compound present, % of start [2, 7] [%] | amount of active compound present [3, 8] [mg/capsule] | amount of active compound present, % of start [3, 8] [%] | amount of active compound present [3, 9] [mg/capsule] | amount of active compound present, % of start [3, 9] [%]
1 | CC(C)(CO)[C@@H](O)C(=O)NCCCO [Dexpanthenol] | 12.8 | 96 | 13.3 | 100 | 9.7 | 72 | 13.5 | 100 | – | – | – | –
2 | O=C1O[C@H]([C@@H](O)CO)C(O)=C1O [Ascorbic acid] | 210 | 99 | 213 | 100 | 159 | 76 | 209 | 100 | 115.0 | 95 | 120.5 | 100
3 | Cc1ncc(CO)c(CO)c1O.Cl [Pyridoxine*HCL] | – | – | – | – | – | – | – | – | 3.39 | 94 | 3.60 | 100
4 | O=C(O)CCCC[C@@H]1SC[C@@H]2NC(=O)N[C@@H]21 [Biotin] | – | – | – | – | – | – | – | – | 0.185 | 105 | 0.176 | 100
5 | Nc1nc2ncc(CNc3ccc(C(=O)N[C@@H](CCC(=O)O)C(=O)O)cc3)nc2c(=O)[nH]1 [Folic acid] | 0.520 | 87 | 0.60 | 100 | 0.57 | 92 | 0.62 | 100 | 0.603 | 104 | 0.581 | 100
6 | NC(=O)c1cccnc1 [Nicotinamide] | – | – | – | – | – | – | – | – | 20.1 | 98 | 20.6 | 100
7 | CC(C)(CO)[C@@H](O)C(=O)NCCC(=O)[O-].CC(C)(CO)[C@@H](O)C(=O)NCCC(=O)[O-].[Ca+2] [Calcium panthotenate] | – | – | – | – | – | – | – | – | 14.9 | 96 | 15.6 | 100
8 | Cyanocobalamine | 0.173 | 82 | 0.21 | 100 | 0.171 | 86 | 0.199 | 100 | 0.0158 | 97 | 0.0163 | 100

Other lines, results leading:

Row | amount of active compound present [1, 4] [mg/capsule] | amount of active compound present, % of start [1, 4] [%] | amount of active compound present [1, 5] [mg/capsule] | amount of active compound present, % of start [1, 5] [%] | amount of active compound present [2, 6] [mg/capsule] | amount of active compound present, % of start [2, 6] [%] | amount of active compound present [2, 7] [mg/capsule] | amount of active compound present, % of start [2, 7] [%] | amount of active compound present [3, 8] [mg/capsule] | amount of active compound present, % of start [3, 8] [%] | amount of active compound present [3, 9] [mg/capsule] | amount of active compound present, % of start [3, 9] [%] | Molecule
9 | 19.3 | 98 | 19.6 | 100 | 17.1 | 87 | 19.7 | 100 | – | – | – | – | Cc1ncc(C[n+]2csc(CCO)c2C)c(N)n1.Cl.[Cl-] [Thiamine*HCL]
10 | – | – | – | – | – | – | – | – | 2.23 | 107 | 2.09 | 100 | Cc1cc2nc3c(=O)[nH]c(=O)nc-3n(C[C@H](O)[C@H](O)[C@H](O)CO)c2cc1C [Riboflavin]
11 | – | – | – | – | – | – | – | – | 19.8 | 99 | 20.0 | 100 | CC(=O)Oc1c(C)c(C)c2c(c1C)CCC(C)(CCC[C@H](C)CCC[C@H](C)CCCC(C)C)O2 (some centres unmarked) [Tocopherol acetate]
12 | – | – | – | – | – | – | – | – | 2.0 | 87 | 2.3 | 100 | CC1=C(/C=C/C(C)=C/C=C/C(C)=C/C=C/C=C(C)/C=C/C=C(C)/C=C/C2=C(C)CCCC2(C)C)C(C)(C)CCC1 [β-Carotene]
